Reference: patent publication US8283346B2, “Human immunodeficiency virus protease inhibitors” (The Trustees of the Stevens Institute of Technology, priority 2009, dated 2012)
“And” between values parts separate entries of the source, which are not always exact repeats. Identical values can stand only once.

Target: T1, HIV-1 protease (Human immunodeficiency virus type 1 group M subtype B, UniProt P04585)
T1 construct: The HIV-1 protease is composed of 99 amino acids
Experiment: In vitro HIV-1 protease assay
Type: biochemical
Conditions: for IC50: purified HIV-1 protease 15 picomolar, peptide substrate 440 micromolar, pH 5.5, 30° C., 60 minutes, HPLC fluorescence detection; for biological activity compared with another named compound, in words: comparator named in the value; for fold higher biological activity than the corresponding SRR (C4) diastereomer: SRS compound vs its SRR diastereomer (4 vs 3, 6 vs 5, 17 vs 16, 13 vs 12, 19 vs 18, 23 vs 22, 21 vs 20)
Experimental: Compounds were evaluated for the ability to inhibit the enzymatic activity of HIV-1 protease in an in vitro assay. Protease activity was assessed in reactions catalyzed by purified HIV-1 protease at a concentration of 15 picomolar in buffer (50 mM sodium acetate, pH 5.5, 100 mM NaCl, 1 mg/mL bovine serum albumin) using a peptide substrate with sequence Val-Ser-Gln-Asn-(beta-naphthylalanine)-Pro-IIe-Val at a concentration of 440 micromolar in a final volume of 80 microliters. Compounds in DMSO stock were added to a final DMSO concentration of 2.5% and preincubated with enzyme prior to the initiation of the reaction by addition of substrate. Reactions were incubated at 30° C. for 60 minutes and were then quenched by the addition of 120 microliters 10% H3PO4. The amount of product formed was determined using high performance liquid chromatography with a Vydac C18 column and fluorescence detection of product. Percent inhibition was determined relative to control reactions without inhibitor, and half maximal inhibitory concentration (IC50) values were determined using a standard four parameter fit to the inhibition data. The IC50 is a quantitative measure of the effectiveness of a compound in inhibiting biological or biochemical function that indicates how much a particular compound or other substance is needed to inhibit a given biological process (or component of a process) by half.

SMILES	fold greater activity than compound 1 (R=H) (mixture of two C4 diastereomers vs compound 1)	IC50	biological activity compared with another named compound, in words	fold higher biological activity than the corresponding SRR (C4) diastereomer	biological activity (HIV-1 protease inhibition) in words
CC1Cc2ccccc2S(=O)(=O)N(C[C@@H](O)[C@H](Cc2ccccc2)NC(=O)OC(C)(C)C)C1 (mixture of isomers) [Compound 2]	ten-fold greater activity	240 nM and 220 nM	–	–	–
CC(C)(C)OC(=O)N[C@@H](Cc1ccccc1)[C@H](O)CN1CC(c2ccccc2)Cc2ccccc2S1(=O)=O (mixture of isomers) [Compound 7]	–	455 nM	biological activity higher than that of Compound 1	–	–
CC(C)(C)OC(=O)N[C@@H](Cc1ccccc1)[C@H](O)CN1CCCc2ccccc2S1(=O)=O [Compound 1]	–	2800 nM and 3050 nM	much less active when compared to Compound 4	–	–
C=CCOC(=O)N[C@@H](Cc1ccccc1)[C@H](O)CN1C[C@H](C)Cc2ccccc2S1(=O)=O [Compound 3]	–	5960 nM	–	–	–
C=CCOC(=O)N[C@@H](Cc1ccccc1)[C@H](O)CN1C[C@@H](C)Cc2ccccc2S1(=O)=O [Compound 4]	–	157 nM	–	approximately 40 fold	–
CCOC(=O)N[C@@H](Cc1ccccc1)[C@H](O)CN1C[C@H](C)Cc2ccccc2S1(=O)=O [Compound 5]	–	10800 nM	–	–	–
CCOC(=O)N[C@@H](Cc1ccccc1)[C@H](O)CN1C[C@@H](C)Cc2ccccc2S1(=O)=O [Compound 6]	–	199 nM	–	approximately 54 fold	–
C=CCOC(=O)N[C@@H](Cc1ccccc1)[C@H](O)CN1C[C@H](c2ccccc2)Cc2ccccc2S1(=O)=O [Compound 8]	–	3260 nM	lower biological activity than that of Compound 9	–	–
C=CCOC(=O)N[C@@H](Cc1ccccc1)[C@H](O)CN1C[C@@H](c2ccccc2)Cc2ccccc2S1(=O)=O [Compound 9]	–	470 nM	higher biological activity than that of Compound 3	–	–
CCOC(=O)N[C@@H](Cc1ccccc1)[C@H](O)CN1C[C@H](c2ccccc2)Cc2ccccc2S1(=O)=O [Compound 10]	–	2440 nM	–	–	–
CCOC(=O)N[C@@H](Cc1ccccc1)[C@H](O)CN1C[C@@H](c2ccccc2)Cc2ccccc2S1(=O)=O [Compound 11]	–	864 nM	higher biological activity than that of Compound 10	–	–
C[C@@H]1Cc2cc(F)ccc2S(=O)(=O)N(C[C@@H](O)[C@H](Cc2ccccc2)NC(=O)OC(C)(C)C)C1 [Compound 12]	–	15700 nM	–	–	–
C[C@H]1Cc2cc(F)ccc2S(=O)(=O)N(C[C@@H](O)[C@H](Cc2ccccc2)NC(=O)OC(C)(C)C)C1 [Compound 13]	–	119 nM	higher biological activity than Compound 15	~132 fold	–
C[C@@H]1Cc2ccccc2S(=O)(=O)N(C[C@@H](O)[C@H](Cc2ccccc2)NC(=O)OC(C)(C)C)C1 [Compound 14]	–	5470 nM	–	–	–
C[C@H]1Cc2ccccc2S(=O)(=O)N(C[C@@H](O)[C@H](Cc2ccccc2)NC(=O)OC(C)(C)C)C1 [Compound 15]	–	169 nM	higher biological activity than that of Compound 14	–	–
C[C@H]1Cc2ccccc2S(=O)(=O)N(C[C@@H](O)[C@H](Cc2ccccc2)NC(=O)Oc2ccccc2)C1 [Compound 17]	–	2060 nM	higher activity than Compound 16	approximately 10 fold	–
C[C@H]1Cc2cc(C(F)(F)F)ccc2S(=O)(=O)N(C[C@@H](O)[C@H](Cc2ccccc2)NC(=O)OC(C)(C)C)C1 [Compound 19]	–	1120 nM	–	~18 fold	not very active
C[C@@H]1Cc2ccc(C(F)(F)F)cc2S(=O)(=O)N(C[C@@H](O)[C@H](Cc2ccccc2)NC(=O)OC(C)(C)C)C1 [Compound 20]	–	8300 nM	–	–	–
C[C@H]1Cc2ccc(C(F)(F)F)cc2S(=O)(=O)N(C[C@@H](O)[C@H](Cc2ccccc2)NC(=O)OC(C)(C)C)C1 [Compound 21]	–	612 nM	–	~14 fold	–
COc1ccc2c(c1)C[C@@H](C)CN(C[C@@H](O)[C@H](Cc1ccccc1)NC(=O)OC(C)(C)C)S2(=O)=O [Compound 22]	–	6100 nM	–	–	not active
COc1ccc2c(c1)C[C@H](C)CN(C[C@@H](O)[C@H](Cc1ccccc1)NC(=O)OC(C)(C)C)S2(=O)=O [Compound 23]	–	107 nM	–	~57 fold	excellent activity
C[C@H]1Cc2cc(F)ccc2S(=O)(=O)N(C[C@@H](O)[C@H](Cc2ccccc2)NC(=O)C2CN(c3ccccc3)C(=O)O2)C1 (stereo partly drawn) [Compound 24]	–	176 nM	–	–	highly active
